Measured values taken from patent US10233207B2, “Crystalline form of nicotinamide riboside” (W. R. Grace & Co.—Conn., priority 2014, dated 2019).

Tests used:
[1] = assay type: physicochemical
From the text: The instant crystalline Form I of nicotinamide riboside chloride may be provided in one of several different morphologies. For example, the crystalline material may exist in a morphology having a bulk density of about 0.25 to about 0.4 g/mL, or may exist in a morphology having a bulk density of about 0.40 to about 0.65 g/mL. The present disclosure also relates to mixtures of at least these two morphologies in any proportion. FIG. 3A depicts a Scanning Electron Microscopy (SEM) image of the inventive crystalline nicotinamide riboside chloride in a morphology having a bulk density of about 0.25 to about 0.4 g/mL, and FIG. 3B depicts a Scanning Electron Microscopy (SEM) image of the inventive crystalline nicotinamide riboside chloride in a morphology having a bulk density of about 0.40 to about 0.65 g/mL. […] This morphology also appears to provide the product with a slightly higher purity as well. Because of the purity, stability, and color variations in the other morphology (the morphology having a bulk density of about 0.40 to about 0.65 g/mL), in at least some instances a preference exists for the crystalline nicotinamide chloride having a bulk density of about 0.25 to about 0.4 g/mL as it appears to produce higher quality product with more consistency.

[2] = high-fat diet supplemented with nicotinamide riboside; cited from earlier work
[3] = Hygroscopicity / Dynamic Vapor Sorption (DVS) moisture sorption isotherm; assay type: physicochemical
Procedure: Moisture sorption isotherms were collected on a DVS-1 system from Surface Measurement Systems UK Ltd. (London, UK) for both crystalline Form I of nicotinamide riboside chloride and for the amorphous form of nicotinamide riboside chloride. Sample sizes were between 9.7 and 14.3 mg of solid material. The relative humidity was started with an initial drying step going from 40% RH to 0% RH. Subsequently, the relative humidity was increased to 95% (sorption), decreased to 0% RH (desorption) and increased again to 95% RH (sorption). Weight equilibration was set per step with a holding time of 1 hour (10% relative humidity step). Individual samples sizes were 12.6568 mg for crystalline Form I and 9.6799 mg for the amorphous sample. FIG. 8A provides a DVS change in mass plot for a sample of the crystalline Form I of nicotinamide riboside chloride, and FIG. 8B provides a DVS isotherm plot for a sample of the crystalline Form I of nicotinamide riboside chloride. FIG. 9A provides a DVS change in mass plot for a sample of the amorphous form of nicotinamide riboside chloride, and FIG. 9B provides a DVS isotherm plot for a sample of the amorphous form of nicotinamide riboside chloride.
FIG. 10 provides a comparison of the sorption curve for crystalline Form I of nicotinamide riboside chloride with the sorption curve for the amorphous sample. […] Even at 70% relative humidity, the weight of the crystalline sample had not increased by more than about 1.0%. These characteristics of the crystalline Form I are advantageous for the handling of the material overall and represent the ability to remain stable over a greater range of working conditions relative to the amorphous form.

NC(=O)c1ccc[n+]([C@@H]2O[C@H](CO)[C@@H](O)[C@H]2O)c1.[Cl-]
stability to degradation via oxygen or water absorption, compared with morphology of bulk density about 0.40 to about 0.65 g/mL [1]: more stable to degradation via oxygen or water absorption

NC(=O)c1ccc[n+]([C@@H]2O[C@H](CO)[C@@H](O)[C@H]2O)c1 [nicotinamide riboside, Nicotinamide riboside]
less weight gained than mice on same high-fat diet without nicotinamide riboside [2]: 60%

3-carbamoyl-1-[(2R,3R,4S5R)-3,4-dihydroxy-5-(hydroxymethypoxolan-2-yl]-pyrin-1-ylium chloride
rate of water absorption compared with amorphous material ([3]; 0% to 60% relative humidity, sorption curve FIG. 10): much less prone to absorption at lower relative humidities than the amorphous material | weight increase of sample (water sorption) ([3]; 70% relative humidity): ≤ 1.0% | water uptake (water vapor sorption isotherm) ([3]; relative humidity of up to 60%): not more than 0.5 wt % | water uptake (water vapor sorption isotherm) ([3]; relative humidity of up to 70%): not more than 1.0 wt %
